Measurements published in patent publication US20230348376A1 (TEIJIN PHARMA LIMITED, priority 2020, published 2023).

How the values were obtained:
[1] = tested on: rat oligodendrocyte progenitor cells; assay: Promotive activity of rat oligodendrocyte progenitor cell differentiation-1 (MBP gene expression, mRNA); assay type: cell-based; conditions: Rattus norvegicus, Oligodendrocyte progenitor cell, 96 h, read-out: promotive activity at T3 base (MBP gene expression; DMSO 0%, T3 100%), 4 days, MBP/β actin mRNA
Procedure: Regarding vitamin D derivatives, which was confirmed to act on the vitamin D receptor (VDR) in Example 352, the promotive activity of oligodendrocyte progenitor cell (OPC) differentiation was evaluated by MBP gene expression (mRNA).
A forebrain obtained from SD rat (Charles River Japan, 1 day old) was crushed with 70 μm Cell Strainer (Falcon #352350), and a cell suspension was prepared by collecting the cells in oligodendrocyte progenitor cell separation medium (20% FBS/2 mM Glutamax (Gibco #35050-061)/i mM sodium pyruvate (Gibco #11360-070)/1% penicillin-streptomycin (Invitrogen #15140-122)/DMEM (Gibco #11960-044)). The cell suspension was seeded in a poly-D-lysine coated T75 flask (Thermo Fisher Scientific #132704) and cultured for about 2 weeks. After culturing, the flask was shaken using a rotary shaker ([…] #WB-101SRC) for about 1 hour (37° C., 100 rpm), and the supernatant was discarded to remove microglia. Subsequently, oligodendrocyte progenitor cell separation medium was added to the flask, and the mixture was similarly shaken for about 22 hours (37° C., 200 rpm), and the supernatant was collected to prepare oligodendrocyte progenitor cells.
The oligodendrocyte progenitor cell prepared was suspended in a differentiation medium (2% B27 (Thermo Fisher Scientific, Inc. #17504-044)/1% penicillin-streptomycin (Invitrogen Corporation #15140-122)/10 ng/mL CNTF (PeproTech Inc. #AF-450-13)/DMEM (Gibco #11960-044)), and seeded on a 96-well plate coated with poly-L-ornithine (FUJIFILM Wako Pure Chemical Corporation #163-27421) under the condition of 0.65×10^4 cells/well, and on a 384-well plate under the condition of 2×10^3 cells/well using an automatic dispensing system (LABCYTE #Echo555). […] After culturing, the cells seeded on the 96-well plate were subjected to immunostaining against MBP using following methods: fixation (4% paraformaldehyde solution, 30 minutes, room temperature), PBS washing, membrane permeation treatment (0.1% Trion X-100 (SIGMA #X100-100ML)/PBS, 3 minutes, room temperature), blocking (3% BSA (SIGMA #A9647-10G)/PBS, 1 hour, room temperature), primary antibody reaction (MBP antibody (abcam plc #ab40390), 2.5 μg/mL, 4° C., 24 hours), PBS washing, secondary antibody reaction (Alexa488 anti-rabbit IgG (Thermo Fisher Scientific, Inc. #A-11034), 5 μg/mL, room temperature, 1 hour), PBS washing, and nuclear staining (Hoechst33342 (DOJINDO #NU043), 10 μg/mL, room temperature, 5 minutes). Subsequently, images of each well were acquired using a fluorescence microscope (KEYENCE CORPORATION #BZ-X800), the number of MBP-positive cells and Hoechst 33342-positive cells were measured using an image analysis application (KEYENCE CORPORATION #BZ-X800 Analyzer), and then the ratio (the number of MBP-positive cells/the number of Hoechst33342-positive cells) was calculated. The cells seeded on the 384-well plate were subjected to real-time PCR using Cells-to-CT 1-Step TaqMan Kit (Thermo Fisher Scientific, Inc. #A25602) and QuantStudio 12K Flex Real-Time PCR System (Thermo Fisher Scientific, Inc. #4472380). The experiment was performed in accordance with the protocol attached to the kit. MBP (Thermo Fisher Scientific, Inc. #Assay ID Rn00690616_ml) and β actin (Thermo Fisher Scientific, Inc. #Assay ID Rn00667869_ml) were used as primers, and the expression levels of each were measured and the ratio (MBP/β actin) was calculated.

[2] = Evaluation of brain penetration in mice (blood and brain concentration at brain Cmax); assay type: in vivo, mouse; conditions: 1 mg/kg single oral dose, C57BL/6J mice; for Concentration in blood (mean ± SD) at brain Cmax / Concentration in brain (mean ± SD) at brain Cmax: n=3; for Kp: male, C57BL/6J, mouse, brain/plasma, po, 1 mg/kg, read-out: Concentration in brain/in blood ratio at brain Cmax
Summary of the method: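 Male C57BL/6J mice (8 weeks, n=3) dosed orally once at 1 […] mg/kg; plasma and brain collected at 0.25, 0.5, 1, 2, 4 and 8 h. Compound extracted with acetonitrile from brain homogenate and plasma, quantified by LC/MS/MS.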

[3] = target: T1, human VDR (Homo sapiens, UniProt P11473); assay: Evaluation of VDR transcription activity in human osteoblasts (HOS cells), luciferase reporter; conditions: Activity (EC50, VDR transcription activity), HOS cells transfected with human VDR, human RXRα and DR3 luciferase reporter; 21 hours
T1 sequence (P11473 1-427): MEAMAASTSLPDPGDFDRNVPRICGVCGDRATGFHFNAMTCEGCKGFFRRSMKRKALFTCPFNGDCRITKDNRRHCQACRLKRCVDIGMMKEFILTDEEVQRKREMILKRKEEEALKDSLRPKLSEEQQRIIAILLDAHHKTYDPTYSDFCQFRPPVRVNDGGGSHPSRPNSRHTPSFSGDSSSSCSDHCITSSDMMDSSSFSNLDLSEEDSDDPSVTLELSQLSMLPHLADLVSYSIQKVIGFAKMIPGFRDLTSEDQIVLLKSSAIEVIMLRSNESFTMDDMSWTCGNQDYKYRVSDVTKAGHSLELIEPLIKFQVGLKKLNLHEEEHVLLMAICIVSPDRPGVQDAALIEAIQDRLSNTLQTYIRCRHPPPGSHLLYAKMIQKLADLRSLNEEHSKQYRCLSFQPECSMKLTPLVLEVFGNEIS
T1 sequence (P19793 1-462 partner): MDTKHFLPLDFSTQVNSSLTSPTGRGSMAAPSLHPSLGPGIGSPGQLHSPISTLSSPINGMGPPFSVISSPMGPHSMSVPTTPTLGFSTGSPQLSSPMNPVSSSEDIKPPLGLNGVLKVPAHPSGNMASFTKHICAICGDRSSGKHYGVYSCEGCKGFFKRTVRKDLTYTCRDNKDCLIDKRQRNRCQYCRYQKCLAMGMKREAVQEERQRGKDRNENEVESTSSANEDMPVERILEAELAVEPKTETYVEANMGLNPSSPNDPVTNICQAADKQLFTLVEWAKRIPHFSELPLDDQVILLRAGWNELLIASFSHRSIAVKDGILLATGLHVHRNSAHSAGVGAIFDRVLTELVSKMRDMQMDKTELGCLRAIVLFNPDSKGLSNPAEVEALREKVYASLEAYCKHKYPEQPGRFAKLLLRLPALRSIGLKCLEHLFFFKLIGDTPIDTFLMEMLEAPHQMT

[4] = tested on: rat oligodendrocyte progenitor cells; assay: Promotive activity of rat oligodendrocyte progenitor cell differentiation-2 (immunostaining of MBP); assay type: cell-based; conditions: vitamin D derivative 2 μM, T3 30 nM, 4 days
Summary of the method: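 Rat OPCs prepared by shaking in separation medium about 22 h at 37 °C, 200 rpm, and collecting the supernatant.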

For `C=C1/C(=C\C=C2/CCC[C@]3(C)[C@@H]([C@H](C)CN4CC[C@H](C(F)F)C4)CC[C@@H]23)C[C@@H](O)[C@H](C)[C@@H]1O` [Compound B021, (1R,2S,3 S,Z)-5-(2-((1R,3aS,7aR,E)-1-((S)-1-((S)-3-(difluoromethyl)pyrrolidin-1-yl)propan-2-yl)-7a-methyloctahydro-4H-inden-4-ylidene)ethylidene)-2-methyl-4-methylenecyclohexane-1,3-diol], the activation at 1 µM [1] was at least 20%, the “Concentration in blood (mean ± SD) at brain Cmax” value [2] was 320 ± 53 nM and the “Concentration in brain (mean ± SD) at brain Cmax” value [2] was 237 ± 33 pmol/g. For the same compound, the Kp [2] was 0.74 and the EC50 [3] was 10 to 100 nM.
For `C=C1/C(=C\C=C2/CCC[C@]3(C)[C@@H]([C@H](C)CN4CC[C@@H](C(F)F)C4)CC[C@@H]23)C[C@@H](O)C[C@@H]1O` [Compound B024, (1R,3 S,Z)-5-(2-((1R,3aS,7aR,E)-1-((S)-1-((R)-3-(difluoromethyl)pyrrolidin-1-yl)propan-2-yl)-7a-methyloctahydro-4H-inden-4-ylidene)ethylidene)-4-methylenecyclohexane-1,3-diol], the activation at 1 µM [1] was at least 20%, the “Mean (number of MBP-positive cells/number of Hoechst33342-positive cells)” value ([4]; Test 1) was 0.28 and the “Concentration in blood (mean ± SD) at brain Cmax” value [2] was 431 ± 46 nM. The “Concentration in brain (mean ± SD) at brain Cmax” value [2] was 652 ± 85 pmol/g and the Kp [2] was 1.51.
`C=C1[C@H](O)CC(=C/C=C2\CCC[C@]3(C)[C@@H]([C@H](C)CN4CCOC5(CCCC5)C4)CC[C@@H]23)C[C@H]1O` [Compound D012, (1R,3R)-5-(2-((1R,3aS,7aR,E)-1-((S)-1-(6-oxa-9-azaspiro[4.5]decan-9-yl)propan-2-yl)-7a-methyloctahydro-4H-inden-4-ylidene)ethylidene)-2-methylenecyclohexane-1,3-diol] showed an activation at 1 µM [1] of at least 20% and an EC50 [3] of 1 to 10 nM.
In the case of `C=C1[C@H](O)CC(=C/C=C2\CCC[C@]3(C)[C@@H]([C@H](C)CN4C[C@@H](C)OC[C@H]4C)CC[C@@H]23)C[C@H]1O` [Compound D017, (1R,3R)-5-(2-((1R,3aS,7aR,E)-1-((S)-1-((2R,5R)-2,5-dimethylmorpholino)propan-2-yl)-7a-methyloctahydro-4H-inden-4-ylidene)ethylidene)-2-methylenecyclohexane-1,3-diol], the activation at 1 µM [1] is reported as at least 20% and the EC50 [3] is reported as 10 to 100 nM.
With `C=C1[C@H](O)CC(=C/C=C2\CCC[C@]3(C)[C@@H]([C@H](C)CCN4CCOCC4)CC[C@@H]23)C[C@H]1O` [Compound D024, (1R,3R)-5-(2-((1R,3aS,7aR,E)-7a-methyl-1-((R)-4-morpholinobutan-2-yl)octahydro-4H-inden-4-ylidene)ethylidene)-2-methylenecyclohexane-1,3-diol] the activation at 1 µM [1] was at least 20%, the “Mean (number of MBP-positive cells/number of Hoechst33342-positive cells)” value ([4]; Test 2) was 0.39 and the “Concentration in blood (mean ± SD) at brain Cmax” value [2] was 368 ± 26 nM. For the same compound, the “Concentration in brain (mean ± SD) at brain Cmax” value [2] was 726 ± 88 pmol/g and the Kp [2] was 1.97.
In the case of `C=C1[C@H](O)CC(=C/C=C2\CCC[C@]3(C)[C@@H]([C@H](C)CCN4CCO[C@@H](C)C4)CC[C@@H]23)C[C@H]1O` [Compound D025, (1R,3R)-5-(2-((1R,3aS,7aR,E)-7a-methyl-1-((R)-4-((S)-2-methylmorpholino)butan-2-yl)octahydro-4H-inden-4-ylidene)ethylidene)-2-methylenecyclohexane-1,3-diol], the activation at 1 µM [1] is reported as at least 20% and the EC50 [3] is reported as 10 to 100 nM.
With `C=C1[C@H](O)CC(=C/C=C2\CCC[C@]3(C)[C@@H]([C@H](C)CCN4CCOC(C)(C)C4)CC[C@@H]23)C[C@H]1O` [Compound D029, (1R,3R)-5-(2-((1R,3aS,7aR,E)-1-((R)-4-(2,2-dimethylmorpholino)butan-2-yl)-7a-methyloctahydro-4H-inden-4-ylidene)ethylidene)-2-methylenecyclohexane-1,3-diol] the activation at 1 µM [1] was at least 20% and the EC50 [3] was 1 to 10 nM.
Compound `C[C@H](CCN1CCOC2(CC2)C1)[C@H]1CC[C@H]2/C(=C/C=C3C[C@@H](O)C[C@H](O)C3)CCC[C@]12C` [Compound D030, (1R,3R)-5-(2-((1R,3aS,7aR,E)-1-((R)-4-(4-oxa-7-azaspiro[2.5]octan-7-yl)butan-2-yl)-7a-methyloctahydro-4H-inden-4-ylidene)ethylidene)cyclohexane-1,3-diol] has an activation at 1 µM [1] of at least 20% and an EC50 [3] of 1 to 10 nM.
Compound `C=C1[C@H](O)CC(=C/C=C2\CCC[C@]3(C)[C@@H]([C@H](C)CCN4CCOC[C@H]4C)CC[C@@H]23)C[C@H]1O` [Compound D031, (1R,3R)-5-(2-((1R,3aS,7aR,E)-7a-methyl-1-((R)-4-((R)-3-methylmorpholino)butan-2-yl)octahydro-4H-inden-4-ylidene)ethylidene)-2-methylenecyclohexane-1,3-diol] has an activation at 1 µM [1] of at least 20% and an EC50 [3] of 1 to 10 nM.
`C=C1[C@H](O)CC(=C/C=C2\CCC[C@]3(C)[C@@H]([C@H](C)CCN4CCOC[C@@H]4C)CC[C@@H]23)C[C@H]1O` [Compound D032, (1R,3R)-5-(2-((1R,3aS,7aR,E)-7a-methyl-1-((R)-4-((S)-3-methylmorpholino)butan-2-yl)octahydro-4H-inden-4-ylidene)ethylidene)-2-methylenecyclohexane-1,3-diol] showed an activation at 1 µM [1] of at least 20% and an EC50 [3] of 10 to 100 nM.
`C[C@H](CCN1CCO[C@@H](C)C1)[C@H]1CC[C@H]2/C(=C/C=C3C[C@@H](O)C[C@H](O)C3)CCC[C@]12C` [Compound D041, (1R,3R)-5-(2-((1R,3aS,7aR,E)-7a-methyl-1-((R)-4-((S)-2-methylmorpholino)butan-2-yl)octahydro-4H-inden-4-ylidene)ethylidene)cyclohexane-1,3-diol] showed an activation at 1 µM [1] of at least 20% and an EC50 [3] of 100 to 1000 nM.
